Measured values reported in PubChem BioAssay AID1963428 (Molecular Pharmacology Branch, DTP, NCI, 2024).

Tested on: 171881-019-R-J1-PDC complex spheroid growth, % test/control
Experiment: Anticancer human tumor 171881-019-R-J1-PDC patient-derived invasive breast carcinoma cell line growth inhibition [Asc]
Conditions: for IC50: curve of first compound; for viability, T/C: stronger effect = lower value
Outline: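 Tumor cells were grown as complex spheroids with human endothelial cells (HUVEC) and human mesenchymal stem cells as stroma. Agents were tested alone and in combination, in half-log steps down from the clinical Cmax, or from 10 microM where Cmax was unknown.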
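Throughout, for viability, T/C: spheroids exposed to compounds for 7 days.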

**Q.** What does the source list for `O=C(c1ccc(F)c(F)c1Nc1ccc(I)cc1F)N1CC(O)([C@@H]2CCCCN2)C1` + CCN1C(C(=O)NC23CCC(C(=O)O)(CC2)CC3)C(c2cccc(Cl)c2F)C2(C(=O)Nc3cc(Cl)ccc32)C12CCCCC2?
**A.** IC50 (second compound 0.03 µM): 511 nM; IC50 (second compound 0.0949 µM): 660 nM; IC50 (second compound 0.3 µM): 581 nM; IC50 (second compound 0.949 µM): 455 nM; IC50 (second compound 3 µM): 286 nM; viability, T/C (second compound 0.03 µM, first compound 0.00316 µM): 102%; viability, T/C (second compound 0.03 µM, first compound 0.01 µM): 100%; viability, T/C (second compound 0.03 µM, first compound 0.0316 µM): 113%; viability, T/C (second compound 0.03 µM, first compound 0.1 µM): 153%; viability, T/C (second compound 0.03 µM, first compound 0.316 µM): 60.5%; viability, T/C (second compound 0.03 µM, first compound 1 µM): 35.2%; viability, T/C (second compound 0.0949 µM, first compound 0.00316 µM): 91.6%; viability, T/C (second compound 0.0949 µM, first compound 0.01 µM): 91.1%; viability, T/C (second compound 0.0949 µM, first compound 0.0316 µM): 151%; viability, T/C (second compound 0.0949 µM, first compound 0.1 µM): 151%; viability, T/C (second compound 0.0949 µM, first compound 0.316 µM): 69.5%; viability, T/C (second compound 0.0949 µM, first compound 1 µM): 39%; viability, T/C (second compound 0.3 µM, first compound 0.00316 µM): 87.6%; viability, T/C (second compound 0.3 µM, first compound 0.01 µM): 108%; viability, T/C (second compound 0.3 µM, first compound 0.0316 µM): 132%; viability, T/C (second compound 0.3 µM, first compound 0.1 µM): 144%; viability, T/C (second compound 0.3 µM, first compound 0.316 µM): 61.3%; viability, T/C (second compound 0.3 µM, first compound 1 µM): 39.9%; viability, T/C (second compound 0.949 µM, first compound 0.00316 µM): 96.2%; viability, T/C (second compound 0.949 µM, first compound 0.01 µM): 111%; viability, T/C (second compound 0.949 µM, first compound 0.0316 µM): 157%; viability, T/C (second compound 0.949 µM, first compound 0.1 µM): 127%; viability, T/C (second compound 0.949 µM, first compound 0.316 µM): 56%; viability, T/C (second compound 0.949 µM, first compound 1 µM): 37%; viability, T/C (second compound 3 µM, first compound 0.00316 µM): 112%; viability, T/C (second compound 3 µM, first compound 0.01 µM): 128%; viability, T/C (second compound 3 µM, first compound 0.0316 µM): 174%; viability, T/C (second compound 3 µM, first compound 0.1 µM): 111%; viability, T/C (second compound 3 µM, first compound 0.316 µM): 48.2%; viability, T/C (second compound 3 µM, first compound 1 µM): 40.1%
